Results as given in patent publication US20230107941A1, “HEPATITIS B CAPSID ASSEMBLY MODULATORS” (Venatorx Pharmaceuticals, Inc., priority 2019, published 2023).
pEC50: −log10 of the molar value. Where two headings read alike, the source gives them in different places.

Tests used:
HBV = assay: In vitro antiviral assay: anti-HBV replication in HepAD38 cells (extracellular HBV DNA by QPCR); assay type: cell-based, hepatitis B virus (genotype D, serotype ayw); settings: 7 days incubation, extracellular HBV DNA by QPCR, read-out: Anti-HBV EC50
Description: The anti-HBV activity of the Capsid Assembly Modulators (CAMs) was evaluated in a cell based assay utilizing the human hepatoma cell line HepAD38 (Ladner, S K., et al., 1998). HepAD38 cells were derived from the parental line, HepG2, that were stably transfected with a construct containing an HBV genome (genotype D, serotype ayw) under the control of a tetracycline repressible CMV promoter. Upon removal of tetracycline, viral pre-genomic RNA (pgRNA) and mRNAs are expressed and infectious viral particles are assembled and secreted into the culture medium providing a reliable, robust system to measure multiple steps of the HBV life cycle. Disruption of capsid formation results in reduced levels of DNA-containing virus particles that are released into the culture supernatant. To quantify the effect of CAMs on HBV replication, we developed a sensitive QPCR-based assay that measures extracellular HBV DNA levels upon treatment of HepAD38 cells with various concentrations of test compounds.
HepAD38 cells were maintained in DMEM/F12 medium containing 10% FBS, 400 μg/mL G418 and 0.3 μg/mL tetracycline (tet+ media) to maintain repression of HBV replication. To evaluate each compound, HepAD38 cells were seeded into 24-well collagen coated culture plates (Corning BioCoat) at a density of 200,000 cells per well in 1 mL of medium without tetracycline (tet-media) and allowed to adhere overnight at 37° C., 5% CO2 in a humidified incubator. The following day, media was refreshed and a dose range of each compound was prepared by performing 1 log10 serial dilutions in 100% DMSO at 200× the desired assay concentration. Dilutions were then added to the cells resulting in a final dose range of 1 μM to 10 pM and the plates were returned to the incubator. Following 7 days of incubation, culture supernatants were harvested and HBV DNA levels were evaluated by QPCR and compared to the vehicle treated control wells (i.e. DMSO alone).
To quantify HBV DNA levels, cell culture supernatants were diluted 1:10 in sterile, nuclease-free water (Gibco). The diluted supernatants were subsequently added to a PCR master mix containing 1× Roche Light Cycler Master Mix, 0.5 μM forward primer, 0.5 μM reverse primer (Fwd: 5′-[…] (SEQ ID NO 1); Rev: 5′-[…] (SEQ ID NO 2)), 0.2 μM Roche Universal Probe Library Probe 25. The volume was brought to 20 μL with nuclease-free water and amplification of the HBV target sequence was performed using a Roche LightCycler 480 QPCR instrument. PCR extended out to 45 cycles with each cycle consisting of a denaturation step at 95° C. for 10 sec., followed by an annealing step at 60° C. for 10 sec. and a brief extension step at 72° C. for 1 sec.
Extracellular HBV DNA levels, expressed in copies/mL, were determined by comparison to a standard curve (10^2-10^9 copies/mL) using the Roche LightCycler analysis software. These values were subsequently converted to percent inhibition of HBV replication by dividing the HBV DNA levels in the experimental samples with those obtained from the vehicle control (˜1-2×10^5 copies/mL). Potency, expressed as an EC50 (the effective concentration required to inhibit 50% of HBV replication), was calculated from the dose-response curve using a 4-parameter non-linear regression analysis (GraphPad Prism). The nucleoside analog inhibitor entecavir was used as a positive control to validate each assay run. The EC50 value of entecavir in the HepAD38 assay was 0.5 nM, as previously reported in the literature.

[1] = In vitro cytotoxicity assay (MTT cell viability) in HepG2 cells; assay type: cell-based, human; settings: human
Description: To evaluate antiviral selectivity, the cytotoxic activity of each compound was determined using a standard cell viability assay performed on the parental HepG2 cell line. Cell viability was determined by measuring the conversion of 3-(4,5-dimethylthiazol-2-yl)-2,5-diphenyltetrazolium bromide (MTT) to the insoluble formazan salt crystal that occurs in live cells. Briefly, HepG2 cells were seeded in 96-well plates at a density of 20,000 cells per well in […] (complete growth medium) and allowed to adhere overnight in a 37° C., […] humidified incubator. The next day, test agents were prepared by performing 8 half-log10 serial dilutions in 100% DMSO at 200× the final desired concentration in the assay. Compounds were tested over a range of concentrations from 30 μM to 1.0 nM in the assay. HepG2 cells were incubated in the presence of various concentrations of CAMs for 7 days in a 37° C., […] humidified incubator. At the completion of the 7-day incubation period, MTT reagent was added to each well and the mixture was incubated for an additional 3-4 hours. At the completion of the incubation period, all wells were aspirated to remove the culture medium. The formazan crystals were solubilized from the cell monolayers with 100% DMSO. Plates were briefly mixed on an orbital shaker and absorbance was measured at 492 nm using a Perkin-Elmer EnVision multi-label plate reader. All absorbance values were converted to a percentage of the signal obtained from the vehicle treated controls. Absorbance values at 492 nm are directly proportional to the number of viable cells present in the sample. A CC50 value (cytotoxic concentration that results in loss of 50% cell viability) was calculated from the dose-response curve by 4-parameter, non-linear regression analysis using the GraphPad Prism software. The positive control compound, staurosporine, reduced the viability of HepG2 cells in a dose-dependent manner (CC50=100 nM).

[2] = Hepatitis B virus, HePAD38, 168 h

| SMILES | pEC50 (HBV; [2]) | CC50 at 7 days [1] | pEC50 (HBV) |
| --- | --- | --- | --- |
| CCc1c(C(=O)Nc2ccc(F)c(C)c2)c(C)c(C(=O)C(=O)N[C@]2(C)CC[C@H](O)CC2)n1C [Example 107, 2-ethyl-N-(4-fluoro-3-methylphenyl)-5-(2-(((1s,4s)-4-hydroxy-1-methylcyclohexyl)amino)-2-oxoacetyl)-1,4-dimethyl-1H-pyrrole-3-carboxamide] | > 7.30 | > 30000 nM | – |
| Cc1cc(NC(=O)c2c(C3CC3)c(C(=O)C(=O)N[C@]3(C)C[C@H](O)C3)n(C)c2C)ccc1F [Example 98, 4-cyclopropyl-N-(4-fluoro-3-methylphenyl)-5-(2-(((1s,3s)-3-hydroxy-1-methylcyclobutyl)amino)-2-oxoacetyl)-1,2-dimethyl-1H-pyrrole-3-carboxamide] | 6.30 to 7.30 | > 30000 nM | – |
| CCN(C(=O)C(=O)c1c(C)c(C(=O)Nc2ccc(F)c(C)c2)c(C)n1C)C(C)C [Example 186, 5-(2-(ethyl(isopropyl)amino)-2-oxoacetyl)-N-(4-fluoro-3-methylphenyl)-1,2,4-trimethyl-1H-pyrrole-3-carboxamide] | 6.00 to 6.30 | > 30000 nM | – |
| Cc1cc(NC(=O)c2c(C)c(C(=O)C(=O)N[C@]3(C)CC[C@H](O)CC3)n(C)c2C2CC2)ccc1F [Example 114, 2-cyclopropyl-N-(4-fluoro-3-methylphenyl)-5-(2-(((1s,4s)-4-hydroxy-1-methylcyclohexyl)amino)-2-oxoacetyl)-1,4-dimethyl-1H-pyrrole-3-carboxamide] | > 7.30 | > 30000 nM | – |
| Cc1cc(NC(=O)c2c(C)c(C(=O)C(=O)NC3(CC(=O)O)CCCNC3)n(C)c2C)ccc1F (stereo not shown) [Example 146, 2-(3-(2-(4-((4-fluoro-3-methylphenyl)carbamoyl)-1,3,5-trimethyl-1H-pyrrol-2-yl)-2-oxoacetamido)piperidin-3-yl)acetic acid] | < 6.00 | > 30000 nM | – |
| Cc1cc(NC(=O)c2c(C)c(C(=O)C(=O)N[C@H]3CC[C@@H](O)CC3)n(C)c2C2CC2)ccc1F [Example 115, 2-cyclopropyl-N-(4-fluoro-3-methylphenyl)-5-(2-(((1s,4s)-4-hydroxycyclohexyl)amino)-2-oxoacetyl)-1,4-dimethyl-1H-pyrrole-3-carboxamide] | > 7.30 | > 30000 nM | – |
| Cc1c(C(=O)Nc2ccc(N3CCOCC3)nc2)c(C)n(C)c1C(=O)C(=O)NC(C)(C)C [Example 62, 5-(2-(tert-butylamino)-2-oxoacetyl)-1,2,4-trimethyl-N-(6-morpholinopyridin-3-yl)-1H-pyrrole-3-carboxamide] | < 6.00 | > 30000 nM | – |
| CCC1(NC(=O)C(=O)c2c(C)c(C(=O)Nc3ccc(F)c(C)c3)c(C)n2C)CCN(c2nccs2)CC1 [Example 43, 5-(2-((4-ethyl-1-(thiazol-2-yl)piperidin-4-yl)amino)-2-oxoacetyl)-N-(4-fluoro-3-methylphenyl)-1,2,4-trimethyl-1H-pyrrole-3-carboxamide] | > 7.30 | 5000 to 30000 nM | – |
| Cc1cc(NC(=O)c2c(C(C)C)c(C(=O)C(=O)N[C@H]3CC[C@@H](O)CC3)n(C)c2C)ccc1F [Example 92, N-(4-fluoro-3-methylphenyl)-5-(2-(((1s,4s)-4-hydroxycyclohexyl)amino)-2-oxoacetyl)-4-isopropyl-1,2-dimethyl-1H-pyrrole-3-carboxamide] | 6.30 to 7.30 | > 30000 nM | – |
| Cc1cc(NC(=O)c2c(C)c(C(=O)C(=O)NC3(C)CCCN(C(=O)Nc4ccc(F)c(F)c4)C3)n(C)c2C)ccc1F (stereo not shown) [Example 49, N-(3,4-difluorophenyl)-3-(2-(4-((4-fluoro-3-methylphenyl)carbamoyl)-1,3,5-trimethyl-1H-pyrrol-2-yl)-2-oxoacetamido)-3-methylpiperidine-1-carboxamide] | 6.30 to 7.30 | > 30000 nM | – |
| Cc1cc(NC(=O)c2c(C)c(C(=O)C(=O)NCC(C)(C)O)n(C)c2C2CCCCC2)ccc1F [Example 120, 2-cyclohexyl-N-(4-fluoro-3-methylphenyl)-5-(2-((2-hydroxy-2-methylpropyl)amino)-2-oxoacetyl)-1,4-dimethyl-1H-pyrrole-3-carboxamide] | < 6.00 | > 30000 nM | – |
| Cc1cc(NC(=O)c2c(C)c(C(=O)C(=O)NC3(C)CC(OP(=O)(O)O)C3)n(C)c2C)ccc1F (stereo not shown) [Example 63, (1s,3s)-3-(2-(4-((4-fluoro-3-methylphenyl)carbamoyl)-1,3,5-trimethyl-1H-pyrrol-2-yl)-2-oxoacetamido)-3-methylcyclobutyl dihydrogen phosphate] | – | > 30000 nM | < 6.00 |
| Cc1cc(NC(=O)c2c(C(C)C)c(C(=O)C(=O)N[C@H]3CC[C@@H](S(C)(=O)=O)CC3)n(C)c2C)ccc1F [Example 95, N-(4-fluoro-3-methylphenyl)-4-isopropyl-1,2-dimethyl-5-(2-(((1s,4s)-4-(methylsulfonyl)cyclohexyl)amino)-2-oxoacetyl)-1H-pyrrole-3-carboxamide] | < 6.00 | > 30000 nM | – |
| Cc1c(C(=O)Nc2ccc(F)c(F)c2)c2n(c1C(=O)C(=O)NC1(C)CCN(C(=O)Nc3ccc(F)c(F)c3)CC1)CCCC2 [Example 33, N-(3,4-difluorophenyl)-3-(2-((1-((3,4-difluorophenyl)carbamoyl)-4-methylpiperidin-4-yl)amino)-2-oxoacetyl)-2-methyl-5,6,7,8-tetrahydroindolizine-1-carboxamide] | > 7.30 | 500 to 4990 nM | – |
| Cc1c(C(=O)Nc2ccc(B(O)O)cc2)c(C)n(C)c1C(=O)C(=O)NC(C)(C)C [Example 45, (4-(5-(2-(tert-butylamino)-2-oxoacetyl)-1,2,4-trimethyl-1H-pyrrole-3-carboxamido)phenyl)boronic acid] | 6.00 to 6.30 | > 30000 nM | – |
| Cc1cc(NC(=O)c2c(C)c(C(=O)C(=O)N[C@]3(C)C[C@H](O)C3)n(C)c2C2CCCC2)ccc1F [Example 132, 2-cyclopentyl-N-(4-fluoro-3-methylphenyl)-5-(2-(((1s,3s)-3-hydroxy-1-methylcyclobutyl)amino)-2-oxoacetyl)-1,4-dimethyl-1H-pyrrole-3-carboxamide] | 6.30 to 7.30 | > 30000 nM | – |
| Cc1cc(NC(=O)c2c(C)c(C(=O)C(=O)NC3(CO)CCN(S(C)(=O)=O)CC3)n(C)c2C)ccc1F [Example 73, N-(4-fluoro-3-methylphenyl)-5-(2-((4-(hydroxymethyl)-1-(methylsulfonyl)piperidin-4-yl)amino)-2-oxoacetyl)-1,2,4-trimethyl-1H-pyrrole-3-carboxamide] | > 7.30 | > 30000 nM | – |
